The target of experiment [1] is T1, cPAH D139A (Chromobacterium violaceum, UniProt P30967, D139A).
T1 sequence (P30967 1-297 D139A): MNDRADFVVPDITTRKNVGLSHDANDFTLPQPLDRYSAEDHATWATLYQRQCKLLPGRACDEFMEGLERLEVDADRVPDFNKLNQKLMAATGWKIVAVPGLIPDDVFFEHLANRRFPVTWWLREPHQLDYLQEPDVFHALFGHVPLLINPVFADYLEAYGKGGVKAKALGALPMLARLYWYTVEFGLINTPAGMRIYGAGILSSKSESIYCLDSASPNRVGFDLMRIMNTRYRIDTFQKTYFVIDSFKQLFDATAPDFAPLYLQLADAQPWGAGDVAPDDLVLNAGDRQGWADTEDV
As to the kind of experiment: ITC, L-Phe binding to iron-reconstituted enzyme with excess BH4.

In experiment [2] the target is T2, cPAH D139E (Chromobacterium violaceum, UniProt P30967, D139E).
T2 sequence (P30967 1-297 D139E): T1 sequence (P30967 1-297 D139A) with A139E
As to the kind of experiment: Steady-state kinetics of phenylalanine hydroxylation. Type of experiment: biochemical.

For experiment [3], the target named is T3, cPAH D139K (Chromobacterium violaceum, UniProt P30967, D139K).
T3 sequence (P30967 1-297 D139K): T1 sequence (P30967 1-297 D139A) with A139K
As to the kind of experiment: ITC, L-Phe binding to iron-reconstituted enzyme with excess BH4.

Experiment [4] concerns the target T4, cPAH D139N (Chromobacterium violaceum, UniProt P30967, D139N).
T4 sequence (P30967 1-297 D139N): T1 sequence (P30967 1-297 D139A) with A139N
The description is as above.

Experiment [5] concerns the target T4, cPAH D139N. As to the kind of experiment: Steady-state kinetics of phenylalanine hydroxylation. The class given is biochemical.
Experiment [6] concerns the target T5, wild-type cPAH (Chromobacterium violaceum, UniProt P30967).
T5 sequence (P30967 1-297): T1 sequence (P30967 1-297 D139A) with A139D
Particulars: cited from earlier work.

Experiment [7] has as its target T2, cPAH D139E. The experiment is described as follows: ITC, L-Phe binding to iron-reconstituted enzyme with excess BH4.
Experiment [8] concerns the target T1, cPAH D139A. The experiment is described as follows: Steady-state kinetics of phenylalanine hydroxylation. Type of experiment: biochemical.
Setting [9] is: D139A, 1 mM Phe into 50 μM protein, 50 μM FeSO4, 200 μM BH4, anaerobic, 25 °C.
The mark [10] stands for this setting: D139K, 1 mM Phe into 50 μM protein, 50 μM FeSO4, 200 μM BH4, anaerobic, 25 °C.
The mark [11] stands for this setting: D139N, 1 mM Phe into 50 μM protein, 50 μM FeSO4, 200 μM BH4, anaerobic, 25 °C.
The mark [12] stands for this setting: D139E, 1 mM Phe into 50 μM protein, 50 μM FeSO4, 200 μM BH4, anaerobic, 25 °C.

Substitutions are numbered along the chain they refer to.

For `N[C@@H](Cc1ccccc1)C(=O)O` [L-Phe, phenylalanine], the Kd in experiment [1] was 39 ± 12 µM; in experiment [3], 31 ± 5 µM; in experiment [4], 37 ± 3.7 µM; in experiment [6] it was 37 ± 0.3 µM; in experiment [7] it was 55 ± 18 µM. Further, the “N (ITC stoichiometry)” value in experiment [1] (setting [9]) is recorded as 1; in experiment [3] (setting [10]), 0.8; in experiment [4] (setting [11]) it was 0.9; in experiment [6] it was 0.8; in experiment [7] (setting [12]) it was 0.6. In addition, the ΔH result is listed as “–10.5 ± 1.9 kcal mol^–1” in experiment [1] (setting [9]); “–9.4 ± 1.3 kcal mol^–1” in experiment [3] (setting [10]); “–8.5 ± 0.7 kcal mol^–1” in experiment [4] (setting [11]); “–7.9 ± 0.8 kcal mol^–1” in experiment [6]; “–13.2 ± 6.0 kcal mol^–1” in experiment [7] (setting [12]). Also, the ΔS result is “–15 cal mol^–1” in experiment [1] (setting [9]); “–11 cal mol^–1” in experiment [3] (setting [10]); “–8 cal mol^–1” in experiment [4] (setting [11]); “–6 cal mol^–1” in experiment [6]; “–25 cal mol^–1” in experiment [7] (setting [12]). The “fold decrease in kcat/KM for phenylalanine vs wild type” value in experiment [2] stood at 7 fold; in experiment [5], 17 fold; in experiment [8], 81 fold.

Values taken from PMC4222540 (Biochemistry, 2014).
